Test results reported in the supplement of paper PMC10307832.

How the values were obtained:
Assay in all cases: relative viability (nuclei count vs DMSO), 5 days (fraction); higher = more cells survive
[1] = compound: C1=CC=C(C(=C1)C2=CC=C(C=C2)C3=CSC4=C3C(=C(C(=O)N4)C#N)O)O + CC(=O)Nc1cccc(-n2c(=O)n(C3CC3)c(=O)c3c(Nc4ccc(I)cc4F)n(C)c(=O)c(C)c32)c1 [Trametinib] (partner 0.02 µM)
In short: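 After 5 days of treatment, lung cancer cells in 1536-well plates were fixed and stained in a single step (final 0.05% Triton X-100, 1% formaldehyde, 1 ug/ml Hoechst) and their nuclei counted on 4× images. Treatment had been applied by pin tool the day after seeding as one drug alone or as a fixed anchor-drug dose with five library-drug doses (not always all listed) in √10 steps. Relative viability is the nuclei count of treated wells divided by that of vehicle wells, and values are medians of duplicate plates.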

TGX 221 = compound: CC1=CN2C(=O)C=C(N=C2C(=C1)C(C)NC3=CC=CC=C3)N4CCOCC4 [TGX 221]
In short: (§1)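 Viability was defined as treated-well nuclei divided by vehicle-well nuclei, with the median taken over replicate plates. Cells from lung cancer lines sat overnight at 37 °C in 1536-well plates, received five √10-spaced library-drug doses by pinning on vehicle-anchored plates, and grew 5 days without medium change before one-step fixation, permeabilisation and Hoechst staining, 4× imaging and MetaXpress nuclear counts. Only plates with control CV under 25% and at least one doubling were kept.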

Ricolinostat = compound: O=C(CCCCCCNC(=O)c1cnc(N(c2ccccc2)c2ccccc2)nc1)NO [Ricolinostat]
In short: as §1

[2] = compound: C1=CC=C(C(=C1)C2=CC=C(C=C2)C3=CSC4=C3C(=C(C(=O)N4)C#N)O)O
In short: as §1

| Cell Line | relative viability ([1]; first compound 0.08 µM) | relative viability ([1]; first compound 0.253 µM) | relative viability ([1]; first compound 0.8 µM) | relative viability ([1]; first compound 2.53 µM) | relative viability ([1]; first compound 8 µM) | relative viability (TGX 221; 0.08 µM) | relative viability (TGX 221; 0.253 µM) | relative viability (TGX 221; 0.8 µM) | relative viability (TGX 221; 2.53 µM) | relative viability (TGX 221; 8 µM) | relative viability (Ricolinostat; 0.08 µM) | relative viability (Ricolinostat; 0.253 µM) | relative viability (Ricolinostat; 0.8 µM) | relative viability (Ricolinostat; 2.53 µM) | relative viability ([2]; 0.08 µM) | relative viability ([2]; 0.253 µM) | relative viability ([2]; 0.8 µM) | relative viability ([2]; 2.53 µM) | relative viability ([2]; 8 µM) |
| --- | --- | --- | --- | --- | --- | --- | --- | --- | --- | --- | --- | --- | --- | --- | --- | --- | --- | --- | --- |
| NCI-H441 | 0.35 | 0.443 | 0.431 | 0.496 | 0.362 | 0.952 | 0.955 | 1.04 | 1.08 | 1.06 | 0.793 | 0.972 | 1.01 | 0.892 | 0.928 | 1.2 | 1.22 | 1.12 | 0.63 |
| NCI-H460 | 0.0954 | 0.101 | 0.201 | 0.108 | 0.151 | 0.968 | 0.96 | 0.977 | 0.945 | 0.925 | 0.95 | 0.968 | 0.96 | 0.989 | 0.963 | 1.05 | 1.02 | 1.06 | 0.742 |
| NCI-H520 | 0.5 | 0.733 | 0.779 | 0.613 | 0.443 | 0.809 | 0.797 | 0.741 | 0.692 | 0.656 | – | 1.05 | 1.01 | 0.861 | 0.808 | 0.901 | 1.07 | 1.04 | 0.777 |
| NCI-H522 | 1 | 0.784 | 0.827 | 0.687 | 0.718 | 0.909 | 0.795 | 1.17 | 0.927 | 1.01 | 0.997 | 0.996 | 0.928 | 0.915 | 0.889 | 0.962 | 1.13 | 0.966 | 0.966 |
| NCI-H596 | 0.73 | 0.827 | 0.891 | 0.695 | 0.747 | 1.03 | 0.953 | 1.02 | 0.94 | 0.997 | 0.999 | 1.1 | 0.987 | 0.851 | 0.777 | 1.22 | 1.05 | 0.98 | 0.841 |
| NCI-H647 | – | 0.422 | 0.57 | 0.493 | 0.25 | 0.856 | 0.809 | 0.889 | 0.738 | 0.621 | 0.745 | 0.903 | 0.867 | 0.712 | 0.825 | 1 | 0.903 | 0.892 | 0.707 |
| NCI-H650 | 1.11 | 1.01 | 0.991 | 1.02 | 0.987 | 0.873 | 0.964 | 0.853 | 0.867 | 0.889 | 0.769 | 0.969 | 0.874 | 0.696 | 0.85 | 1.04 | 0.835 | 1.01 | 0.877 |
| NCI-H661 | 0.5 | 0.573 | 0.603 | 0.569 | 0.501 | 1.02 | 1.02 | 0.971 | 0.999 | 0.846 | 0.836 | 0.981 | 1.02 | 0.803 | 1.11 | 1.03 | 1.03 | 0.97 | 0.834 |
| NCI-H727 | 0.39 | 0.373 | 0.384 | 0.423 | 0.331 | 0.885 | 0.887 | 0.948 | 0.898 | 0.97 | 0.763 | 1.11 | 1 | 0.81 | 1.02 | 0.92 | 0.987 | 0.808 | 0.842 |
| NCI-H838 | 0.488 | 0.485 | 0.654 | 0.456 | 0.331 | 0.946 | 0.833 | 0.886 | 0.83 | 0.761 | 0.822 | 1.05 | 0.981 | 0.95 | 0.893 | 1.06 | 0.98 | 0.882 | 0.824 |
| NCI-H1355 | 0.484 | 0.495 | 0.416 | 0.432 | 0.454 | 0.979 | 0.948 | 0.972 | 0.864 | 0.902 | 0.855 | 0.97 | 0.948 | 0.893 | 0.839 | 1.13 | 1.02 | 1.02 | 0.955 |
| NCI-H1395 | – | 1.02 | 0.974 | 0.938 | 1.01 | 0.787 | 0.801 | 0.838 | 0.664 | 0.703 | – | 0.922 | 0.746 | 0.833 | – | 0.925 | 0.837 | 0.944 | 0.888 |
| NCI-H1437 | 0.485 | 0.606 | 0.534 | 0.518 | 0.298 | 1.02 | 0.942 | 0.998 | 0.983 | 0.929 | 0.951 | 0.993 | 0.969 | 0.763 | 0.935 | 1.11 | 0.994 | 1.14 | 0.891 |
| NCI-H1648 | – | 0.487 | 0.61 | 0.546 | 0.353 | 0.736 | 0.656 | 0.974 | 0.686 | 0.873 | 0.719 | 1.04 | 0.745 | 0.792 | 0.644 | 0.68 | 0.755 | 0.794 | 0.739 |
| NCI-H1650 | 0.639 | 0.495 | 0.524 | 0.597 | 0.42 | 0.979 | 0.816 | 0.862 | 0.859 | 0.705 | 0.774 | 0.884 | 0.789 | 0.678 | 0.727 | 1.29 | 0.913 | 0.93 | 0.612 |
| NCI-H1651 | 0.895 | 0.875 | 0.809 | 0.858 | 0.677 | 0.923 | 0.891 | 0.953 | 0.956 | 0.879 | 0.913 | 0.936 | 0.971 | 0.966 | 0.997 | 0.973 | 1.07 | 1 | 0.821 |
| NCI-H1666 | 0.819 | 1.13 | 0.935 | 0.861 | 0.803 | 1.01 | 0.955 | 0.946 | 0.97 | 0.933 | 0.963 | 0.948 | 0.986 | 0.904 | 1.02 | 1.3 | 1.03 | 0.998 | 0.873 |
